In patent US6528516B1, “Methods for reducing intraocular pressure using A3 adenosine receptor antagonists” (Trustees of the University of Pennsylvania, The Center for …, priority 1998, dated 2003):
“Also recorded” adds a separate entry of the source.

Tests used:
Bovine PE cells = experiment: Intracellular Ca2+ of PE cells (fura-2); assay type: cell-based; conditions: for effect of TMX on the Ca2+ response to ATP: 10 μM TMX, 100 μM ATP, 20-sec applications
Protocol: Bovine PE cells grown on coverslips for 2-4 days were loaded with 5 μM fura-2 μAM for 30-45 min at room temperature, and then rinsed and maintained in fura-free solution before beginning data acquisition. The coverslips were mounted on a Nikon Diaphot microscope and visualized with a ×40 oil-immersion fluorescence objective. The emitted fluorescence (510 nm) from 10-12 confluent cells was sampled at 1 Hz following excitation at 340 nm and 380 nm, and the ratio determined with a Delta-Ram system and Felix software (Photon Technology International Inc., Princeton, N.J.). The ratio of light excited at 340 nm to that at 380 nm was converted into Ca^2+ concentration using the method of Grynkiewicz et al. (J. Biol. Chem. 260:3440-3450, 1985). […] Rmin was obtained by bathing cells in a Ca^2+ free isotonic solution of pH 8.0 containing 10 mM EGTA and 5 μM ionomycin. R^max was obtained by bathing the cells in isotonic solution with 1.3 mM Ca^2+ and 5 μM ionomycin. Calibration was performed separately for each experiment. Baseline levels from PE cells in the absence of fura-2 were subtracted from records to control for autofluorescence. Experiments were performed predominantly at room temperature, but several trials were performed at 37° C. using a temperature control unit from Warner Instrument Corp., (Hamden, Conn.). Cells were perfused with an isotonic solution containing (in mM) 105 NaCl, 6HEPES (acid), 4HEPES (Na^+), 1.3 CaCl2, 1 MgCl2, 4 KCl, 5 glucose and 90 mannitol, at an osmolarity of 317 mOsm, pH 7.4.

[1] = test system: bovine pigmented ciliary epithelial (PE) cells; experiment: Cell volume (shrinkage) of PE cells in isoosmotic suspension, Coulter Counter; assay type: cell-based; conditions: for effect of tamoxifen alone on PE cell volume: absence of ATP, 30-min observation
[2] = test system: swelling-activated Cl− channels of NPE cells; experiment: Regulatory volume decrease (RVD) of NPE cells after hypotonic swelling; assay type: cell-based, human; conditions: for effect on cell volume after RVD: TMX added at t=10 min, conclusion of the RVD
[3] = test system: large-conductance Cl− channel, NIH 3T3 fibroblasts transfected with MDR1; conditions: NIH 3T3 fibroblasts after MDR1 transfection and growth in colchicine; read-out: EC50 for activation of large-conductance Cl− channel; cited from earlier work
[4] = 6 μM tamoxifen + 10 μM ATP, 5 μM gramicidin D, Cl− present, FIG. 12A
[5] = 6 μM tamoxifen + 10 μM ATP, FIG. 8C
[6] = 10 μM tamoxifen + 100 μM ATP, FIG. 15, first 6 time points
[7] = 10 μM tamoxifen + 100 μM ATP, FIG. 16A
[8] = 100 μM ATP + 10 μM TMX, FIG. 13C
[9] = 100 μM ATP + 10 μM agent, FIG. 13A
[10] = 100 μM ATP + 10 μM agent, FIG. 14A
[11] = ATP + agent (ATP+TMX; ATP+atropine), FIG. 13B
[12] = ATP + tamoxifen, absence of Cl− channel inhibitors, FIG. 12B

What does the source list for `CC/C(=C(\c1ccccc1)c1ccc(OCCN(C)C)cc1)c1ccccc1` [tamoxifen]?
effect of TMX on the Ca2+ response to ATP (Bovine PE cells): does not alter the magnitude of the response; effect of TMX on the Ca2+ response to ATP (Bovine PE cells; listed as TMX): did not affect the size; change (Δ) in intracellular Ca2+ (Bovine PE cells; 10 μM tamoxifen alone): 7 ± 6 nM; effect of tamoxifen alone on Ca2+ (Bovine PE cells; tamoxifen alone): no significant effect; steady-state cell volume (v∞) ([1]; 3 μM ATP+10 μM TMX, FIG. 8B): 96.7±0.4%; time constant of the shrinkage (τ) ([1]; 3 μM ATP+10 μM TMX, FIG. 8B): 5.8 ± 2.1 min; steady-state cell volume (v∞) [1, 4]: 90.6%±1.1%; time constant of the shrinkage (τ) [1, 4]: 13.2 ± 3.2 min; steady-state cell volume (v∞) [1, 5]: 95.7±0.7%; time constant of the shrinkage (τ) [1, 5]: 6.6 ± 3.2 min; steady-state cell volume (v∞) ([1]; 10 μM ATP + 6 μM TMX, FIG. 10A): 92.8±0.8%; time constant of the shrinkage (τ) ([1]; 10 μM ATP + 6 μM TMX, FIG. 10A): 11.4 ± 0.3 min; steady-state cell volume (v∞) ([1]; 10 μM ATP+10 μM TMX, FIG. 8B): 95.7±0.3%; time constant of the shrinkage (τ) ([1]; 10 μM ATP+10 μM TMX, FIG. 8B): 1.4 ± 0.7 min; effect of agent on shrinkage in the presence of ATP ([1]; 10 μM agent, 100 μM ATP, FIG. 13A): enhanced shrinkage; steady-state cell volume (v∞) [1, 6]: 89.7±6.1%; time constant of the shrinkage (τ) [1, 6]: 22.9 ± 19.0 min; steady-state cell volume (v∞) [1, 7]: 93.9±1.0%; time constant of the shrinkage (τ) [1, 7]: 15.6 ± 5.0 min; steady-state cell volume (v∞) [1, 8]: 89.6±1.9%; time constant of the shrinkage (τ) [1, 8]: 11.3 ± 4.7 min; steady-state cell volume (v∞) [1, 9]: 94.1±0.6%; time constant of the shrinkage (τ) [1, 9]: 6.5 ± 2.3 min; steady-state cell volume (v∞) [1, 10]: 94.8±0.4%; time constant of the shrinkage (τ) [1, 10]: 2.2 ± 10.8 min; effect of tamoxifen on the ATP-triggered shrinkage ([1]; 6-10 μM tamoxifen with ATP): strongly enhanced; also recorded: enhanced the response; also recorded: enhanced the ATP-triggered shrinkage; steady-state cell volume (v∞) [1, 11]: 88.4±0.5%; time constant of the shrinkage (τ) [1, 11]: 7.2 ± 0.9 min; steady-state cell volume (v∞) [1, 12]: 94.2%±0.3%; time constant of the shrinkage (τ) [1, 12]: 4.4 ± 0.8 min; effect of tamoxifen alone on PE cell volume [1]: no consistent response; effect of tamoxifen alone on PE cell volume ([1]; listed as Tamoxifen): no consistent effect; effect on regulatory volume decrease (RVD) ([2]; TMX added at t=5 min): reduced the magnitude of the RVD; effect on regulatory volume decrease (RVD) ([2]; TMX added at t=5 min, listed as TMX): partially inhibited the steady-state response; effect on cell volume after RVD [2]: did not affect cell volume; effect on cell volume after RVD ([2]; listed as TMX): no effect on cell volume; effect on regulatory volume decrease (RVD) ([2]; TMX added at the time of hypotonic stress, 5 μM gramicidin D): completely abolished the RVD; effect on regulatory volume decrease (RVD) ([2]; TMX added at the time of hypotonic stress, 5 μM gramicidin D, listed as TMX): abolished the RVD; EC50 [3]: ~15 µM
